pEC50: −log10 of the molar value. Read-outs that look alike come from different tables or passages of the source. Each block holds one compound with its values, some of them ahead of it.
Molecular target: T1, CFTR (Homo sapiens, UniProt P13569, DEL508-508)
T1 construct: endogenous in cells; host or cells: primary human bronchial epithelial cells from CF subjects (F508del/MF-HBE), differentiated at air-liquid interface
Assay: HBE assay: Ussing chamber assay of CFTR-mediated short-circuit currents
Type: cell-based
Conditions: for activation at 10 µM: read-out: HBE Activity at 10 μM (%); for pEC50: read-out: HBE EC50; for Emax: read-out: HBE Max Activity (%)
How it was run: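 CFTR-mediated Isc (μA/cm²) equals the peak response to apical 20 μM forskolin minus the residual after a 20 μM each BPO/GlyH-101/CFTR inhibitor 172 cocktail, recorded in Ussing chambers at Vhold 0 mV, 37 °C, pH 7.4, with 30 μM apical amiloride. Cells were F508del/MF HBE cultures preincubated 18-24 h with corrector (concentration range or 10 μM) plus 1 μM ivacaftor in 20% human serum.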

T1 sequence (P13569 with tags, fused parts or gaps DEL508-508): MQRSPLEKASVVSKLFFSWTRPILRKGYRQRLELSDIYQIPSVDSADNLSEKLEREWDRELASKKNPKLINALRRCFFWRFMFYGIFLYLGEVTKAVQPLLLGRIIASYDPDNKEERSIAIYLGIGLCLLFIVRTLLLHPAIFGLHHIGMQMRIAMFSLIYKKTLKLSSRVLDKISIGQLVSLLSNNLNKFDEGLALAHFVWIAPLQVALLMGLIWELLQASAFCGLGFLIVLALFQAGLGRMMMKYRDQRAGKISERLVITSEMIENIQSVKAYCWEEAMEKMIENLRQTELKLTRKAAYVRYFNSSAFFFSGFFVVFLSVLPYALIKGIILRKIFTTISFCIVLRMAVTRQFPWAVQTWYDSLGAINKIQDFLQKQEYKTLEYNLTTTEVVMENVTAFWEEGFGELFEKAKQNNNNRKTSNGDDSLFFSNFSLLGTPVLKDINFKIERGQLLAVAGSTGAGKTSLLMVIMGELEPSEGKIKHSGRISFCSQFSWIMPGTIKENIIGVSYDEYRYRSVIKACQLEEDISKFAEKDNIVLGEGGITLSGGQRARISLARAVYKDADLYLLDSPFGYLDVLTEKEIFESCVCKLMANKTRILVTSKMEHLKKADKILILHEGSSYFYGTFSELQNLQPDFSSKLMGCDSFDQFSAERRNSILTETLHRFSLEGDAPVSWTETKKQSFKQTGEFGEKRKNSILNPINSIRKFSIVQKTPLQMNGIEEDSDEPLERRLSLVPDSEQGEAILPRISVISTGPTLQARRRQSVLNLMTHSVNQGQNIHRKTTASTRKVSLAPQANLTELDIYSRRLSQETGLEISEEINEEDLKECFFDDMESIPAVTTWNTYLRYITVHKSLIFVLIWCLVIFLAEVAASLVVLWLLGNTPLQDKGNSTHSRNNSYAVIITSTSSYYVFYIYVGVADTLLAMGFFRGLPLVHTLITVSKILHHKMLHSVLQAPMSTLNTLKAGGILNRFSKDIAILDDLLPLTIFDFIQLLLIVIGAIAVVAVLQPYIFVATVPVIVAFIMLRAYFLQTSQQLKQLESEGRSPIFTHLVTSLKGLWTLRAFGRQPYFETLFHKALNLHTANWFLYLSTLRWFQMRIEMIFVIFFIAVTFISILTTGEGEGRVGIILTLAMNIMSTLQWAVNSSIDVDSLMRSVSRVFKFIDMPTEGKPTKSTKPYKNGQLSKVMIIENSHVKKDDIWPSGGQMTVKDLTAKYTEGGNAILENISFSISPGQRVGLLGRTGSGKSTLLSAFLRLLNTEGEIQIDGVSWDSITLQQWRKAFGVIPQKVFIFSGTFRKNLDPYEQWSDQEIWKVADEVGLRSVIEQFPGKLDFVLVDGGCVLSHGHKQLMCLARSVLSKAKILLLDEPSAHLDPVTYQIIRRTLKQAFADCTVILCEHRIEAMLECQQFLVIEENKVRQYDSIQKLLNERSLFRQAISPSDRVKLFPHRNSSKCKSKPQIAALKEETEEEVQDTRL

activation at 10 µM (Table 13): > 600%
SMILES: Cc1cccc(C)c1-c1cc2nc(n1)NS(=O)(=O)c1cccc(c1)C(=O)N(CC(=O)N1CCC[C@@H](C)C1)[C@H](CC(C)(C)C)CO2 [Compound 184]

activation at 10 µM (Table 13): > 600%
SMILES: Cc1cccc(C)c1-c1cc2nc(n1)NS(=O)(=O)c1cccc(c1)C(=O)N(CC(=O)N1CCCC1c1ccccc1)[C@H](CC(C)(C)C)CO2 (stereo partly shown) [Compound 188]

activation at 10 µM (Table 13): > 600%
SMILES: Cc1cccc(C)c1-c1cc2nc(n1)NS(=O)(=O)c1cccc(c1)C(=O)N(CC(=O)N(C)CC1CCCOC1)[C@H](CC(C)(C)C)CO2 (stereo partly shown) [Compound 193]

activation at 10 µM (Table 13): > 600%
SMILES: Cc1cccc(C)c1-c1cc2nc(n1)NS(=O)(=O)c1cccc(c1)C(=O)N(CC(=O)N1CCC[C@H](c3ccccc3)C1)[C@H](CC(C)(C)C)CO2 [Compound 195]

activation at 10 µM (Table 13): > 600%
SMILES: Cc1cccc(C)c1-c1cc2nc(n1)NS(=O)(=O)c1cccc(c1)C(=O)N(CC(=O)N1C[C@@H](C)O[C@@H](C)C1)[C@H](CC(C)(C)C)CO2 [Compound 199]

activation at 10 µM (Table 13): > 600%
SMILES: Cc1cccc(C)c1-c1cc2nc(n1)NS(=O)(=O)c1cccc(c1)C(=O)N(CC(=O)NC1CCCCC1)[C@H](CC(C)(C)C)CO2 [Compound 205]

activation at 10 µM (Table 13): 30 to 60%
SMILES: Cc1cccc(C)c1-c1cc2nc(n1)NS(=O)(=O)c1cccc(c1)C(=O)N(CC(=O)N1CCc3c(Cl)nc(C(F)(F)F)nc3C1)[C@H](CC(C)(C)C)CO2 [Compound 206]

activation at 10 µM (Table 13): > 600%
SMILES: Cc1cccc(C)c1-c1cc2nc(n1)NS(=O)(=O)c1cccc(c1)C(=O)N(CC(=O)N1CCOCC1(C)C)[C@H](CC(C)(C)C)CO2 [Compound 214]

activation at 10 µM (Table 12): > 600%
SMILES: Cc1cccc(C)c1-c1cc2nc(n1)NS(=O)(=O)c1cccc(c1)C(=O)N(CC(=O)NCc1cnccn1)[C@H](CC(C)(C)C)CO2 [Compound 216]

activation at 10 µM (Table 13): > 600%
SMILES: Cc1cccc(C)c1-c1cc2nc(n1)NS(=O)(=O)c1cccc(c1)C(=O)N(CC(=O)NCc1ccccc1)[C@H](CC(C)(C)C)CO2 [Compound 219]

activation at 10 µM (Table 13): > 600%
SMILES: Cc1cccc(C)c1-c1cc2nc(n1)NS(=O)(=O)c1cccc(c1)C(=O)N(CC(=O)NCc1ccccn1)[C@H](CC(C)(C)C)CO2 [Compound 220]

activation at 10 µM (Table 12): > 600%
SMILES: Cc1cccc(C)c1-c1cc2nc(n1)NS(=O)(=O)c1cccc(c1)C(=O)N(CC(=O)N(C)CCN(C)C)[C@H](CC(C)(C)C)CO2 [Compound 224]

activation at 10 µM (Table 12): > 600%
SMILES: Cc1cccc(C)c1-c1cc2nc(n1)NS(=O)(=O)c1cccc(c1)C(=O)N(CC(=O)N(C)CC1CCCC1)[C@H](CC(C)(C)C)CO2 [Compound 229]

pEC50 (Table 12): > 6.00
Emax (Table 12): > 60%
SMILES: Cc1cccc(C)c1-c1cc2nc(n1)NS(=O)(=O)c1cccc(c1)C(=O)N(CC(=O)NCC1CCCCC1)[C@H](CC(C)(C)C)CO2 [Compound 230]

activation at 10 µM (Table 12): > 600%
SMILES: Cc1cccc(C)c1-c1cc2nc(n1)NS(=O)(=O)c1cccc(c1)C(=O)N(Cc1cn(C(C)C)cn1)[C@H](CC(C)(C)C)CO2 [Compound 232]

pEC50 (Table 13): > 6.00
Emax (Table 13): > 60%
SMILES: Cc1cccc(C)c1-c1cc2nc(n1)NS(=O)(=O)c1cccc(c1)C(=O)N(Cc1ccc(OC(C)C)nn1)[C@H](CC(C)(C)C)CO2 [Compound 234]

pEC50 (Table 13): > 6.00
Emax (Table 13): > 60%
SMILES: Cc1cccc(C)c1-c1cc2nc(n1)NS(=O)(=O)c1cccc(c1)C(=O)N(Cc1cccc(N(CC3CC3)C(C)C)n1)[C@H](CC(C)(C)C)CO2 [Compound 235]

The remaining lines, values behind:

SMILES: Cc1cccc(C)c1-c1cc2nc(n1)NS(=O)(=O)c1cccc(c1)C(=O)N(CC(=O)N1C[C@H](C)O[C@@H](C)C1)[C@H](CC(C)(C)C)CO2 [Compound 185]
activation at 10 µM (Table 13): > 600%

SMILES: Cc1cccc(C)c1-c1cc2nc(n1)NS(=O)(=O)c1cccc(c1)C(=O)N(CC(=O)N1CCC(N(C)C)CC1)[C@H](CC(C)(C)C)CO2 [Compound 186]
activation at 10 µM (Table 13): > 600%

SMILES: Cc1cccc(C)c1-c1cc2nc(n1)NS(=O)(=O)c1cccc(c1)C(=O)N(CC(=O)N1CCN(C(C)C)CC1)[C@H](CC(C)(C)C)CO2 [Compound 187]
activation at 10 µM (Table 13): > 600%

SMILES: Cc1cccc(C)c1-c1cc2nc(n1)NS(=O)(=O)c1cccc(c1)C(=O)N(CC(=O)NC1CCOCC1)[C@H](CC(C)(C)C)CO2 [Compound 189]
activation at 10 µM (Table 13): > 600%

SMILES: Cc1cccc(C)c1-c1cc2nc(n1)NS(=O)(=O)c1cccc(c1)C(=O)N(CC(=O)N1[C@H](C)CCC[C@@H]1C)[C@H](CC(C)(C)C)CO2 [Compound 190]
activation at 10 µM (Table 13): > 600%

SMILES: Cc1cccc(C)c1-c1cc2nc(n1)NS(=O)(=O)c1cccc(c1)C(=O)N(CC(=O)N1CCC(c3ccccc3)C1)[C@H](CC(C)(C)C)CO2 (stereo partly shown) [Compound 191]
activation at 10 µM (Table 13): > 600%

SMILES: CCC1CCC(NC(=O)CN2C(=O)c3cccc(c3)S(=O)(=O)Nc3nc(cc(-c4c(C)cccc4C)n3)OC[C@H]2CC(C)(C)C)CC1 (stereo partly shown) [Compound 192]
activation at 10 µM (Table 13): > 600%

SMILES: Cc1cccc(C)c1-c1cc2nc(n1)NS(=O)(=O)c1cccc(c1)C(=O)N(CC(=O)N[C@H]1CC[C@H](C)CC1)[C@H](CC(C)(C)C)CO2 [Compound 194]
activation at 10 µM (Table 13): > 600%

SMILES: Cc1cccc(C)c1-c1cc2nc(n1)NS(=O)(=O)c1cccc(c1)C(=O)N(CC(=O)N1CCCCC1c1ccccc1)[C@H](CC(C)(C)C)CO2 (stereo partly shown) [Compound 196]
activation at 10 µM (Table 13): > 600%

SMILES: Cc1cccc(C)c1-c1cc2nc(n1)NS(=O)(=O)c1cccc(c1)C(=O)N(CC(=O)N1CCOCC1)[C@H](CC(C)(C)C)CO2 [Compound 197]
activation at 10 µM (Table 13): > 600%

SMILES: Cc1cccc(C)c1-c1cc2nc(n1)NS(=O)(=O)c1cccc(c1)C(=O)N(CC(=O)NC1CCCC1)[C@H](CC(C)(C)C)CO2 [Compound 198]
activation at 10 µM (Table 13): > 600%

SMILES: Cc1cccc(C)c1-c1cc2nc(n1)NS(=O)(=O)c1cccc(c1)C(=O)N(CC(=O)N1CCCCC1)[C@H](CC(C)(C)C)CO2 [Compound 200]
activation at 10 µM (Table 13): > 600%

SMILES: Cc1cccc(C)c1-c1cc2nc(n1)NS(=O)(=O)c1cccc(c1)C(=O)N(CC(=O)N1CCC(OC(C)C)C1)[C@H](CC(C)(C)C)CO2 (stereo partly shown) [Compound 201]
activation at 10 µM (Table 13): > 600%

SMILES: Cc1cccc(C)c1-c1cc2nc(n1)NS(=O)(=O)c1cccc(c1)C(=O)N(CC(=O)N1C[C@@H](C)[C@@H](C)C1)[C@H](CC(C)(C)C)CO2 [Compound 202]
activation at 10 µM (Table 13): > 600%

SMILES: Cc1cccc(C)c1-c1cc2nc(n1)NS(=O)(=O)c1cccc(c1)C(=O)N(CC(=O)N1CCC(c3ccccc3)CC1)[C@H](CC(C)(C)C)CO2 [Compound 203]
activation at 10 µM (Table 13): > 600%

SMILES: Cc1cccc(C)c1-c1cc2nc(n1)NS(=O)(=O)c1cccc(c1)C(=O)N(CC(=O)N1C[C@H](C)CC1(C)C)[C@H](CC(C)(C)C)CO2 [Compound 204]
activation at 10 µM (Table 13): > 600%

SMILES: Cc1cccc(C)c1-c1cc2nc(n1)NS(=O)(=O)c1cccc(c1)C(=O)N(CC(=O)N1CCc3ccccc3C1)[C@H](CC(C)(C)C)CO2 [Compound 207]
activation at 10 µM (Table 13): > 600%

SMILES: Cc1cccc(C)c1-c1cc2nc(n1)NS(=O)(=O)c1cccc(c1)C(=O)N(CC(=O)N1CCC(C)(C)CC1)[C@H](CC(C)(C)C)CO2 [Compound 208]
activation at 10 µM (Table 13): > 600%

SMILES: Cc1ccc2c(c1)CCN(C(=O)CN1C(=O)c3cccc(c3)S(=O)(=O)Nc3nc(cc(-c4c(C)cccc4C)n3)OC[C@H]1CC(C)(C)C)C2 [Compound 209]
activation at 10 µM (Table 13): > 600%

SMILES: Cc1cccc(C)c1-c1cc2nc(n1)NS(=O)(=O)c1cccc(c1)C(=O)N(CC(=O)N1CCC(C(C)(C)C)CC1)[C@H](CC(C)(C)C)CO2 [Compound 210]
activation at 10 µM (Table 13): > 600%

SMILES: Cc1cccc(C)c1-c1cc2nc(n1)NS(=O)(=O)c1cccc(c1)C(=O)N(CC(=O)N1CCc3ccccc3C1C)[C@H](CC(C)(C)C)CO2 (stereo partly shown) [Compound 211]
activation at 10 µM (Table 13): > 600%

SMILES: Cc1cccc(C)c1-c1cc2nc(n1)NS(=O)(=O)c1cccc(c1)C(=O)N(CC(=O)N1CCOCC1C(C)C)[C@H](CC(C)(C)C)CO2 (stereo partly shown) [Compound 212]
activation at 10 µM (Table 13): > 600%

SMILES: Cc1cccc(C)c1-c1cc2nc(n1)NS(=O)(=O)c1cccc(c1)C(=O)N(CC(=O)N1CCCC1(C)C)[C@H](CC(C)(C)C)CO2 [Compound 213]
activation at 10 µM (Table 13): > 600%

SMILES: Cc1cccnc1CNC(=O)CN1C(=O)c2cccc(c2)S(=O)(=O)Nc2nc(cc(-c3c(C)cccc3C)n2)OC[C@H]1CC(C)(C)C [Compound 215]
activation at 10 µM (Table 12): > 600%

SMILES: Cc1ccccc1CNC(=O)CN1C(=O)c2cccc(c2)S(=O)(=O)Nc2nc(cc(-c3c(C)cccc3C)n2)OC[C@H]1CC(C)(C)C [Compound 217]
activation at 10 µM (Table 12): > 600%

SMILES: Cc1ccnc(CNC(=O)CN2C(=O)c3cccc(c3)S(=O)(=O)Nc3nc(cc(-c4c(C)cccc4C)n3)OC[C@H]2CC(C)(C)C)c1 [Compound 218]
activation at 10 µM (Table 12): > 600%

SMILES: Cc1cccc(C)c1-c1cc2nc(n1)NS(=O)(=O)c1cccc(c1)C(=O)N(CC(=O)N(C)Cc1ccccn1)[C@H](CC(C)(C)C)CO2 [Compound 221]
pEC50 (Table 12): > 6.00
Emax (Table 12): > 60%

SMILES: Cc1cccc(C)c1-c1cc2nc(n1)NS(=O)(=O)c1cccc(c1)C(=O)N(CC(=O)N(C)CC1CCOCC1)[C@H](CC(C)(C)C)CO2 [Compound 223]
activation at 10 µM (Table 13): > 600%

SMILES: Cc1cccc(C)c1-c1cc2nc(n1)NS(=O)(=O)c1cccc(c1)C(=O)N(CC(=O)N(C)CC1CCCCO1)[C@H](CC(C)(C)C)CO2 (stereo partly shown) [Compound 225]
activation at 10 µM (Table 13): > 600%

SMILES: Cc1cccc(C)c1-c1cc2nc(n1)NS(=O)(=O)c1cccc(c1)C(=O)N(CC(=O)N(C)CCN1CCOCC1)[C@H](CC(C)(C)C)CO2 [Compound 226]
activation at 10 µM (Table 13): > 600%

SMILES: Cc1cccc(C)c1-c1cc2nc(n1)NS(=O)(=O)c1cccc(c1)C(=O)N(CC(=O)NCC1CCCC1)[C@H](CC(C)(C)C)CO2 [Compound 228]
activation at 10 µM (Table 12): 30 to 60%

SMILES: Cc1cccc(C)c1-c1cc2nc(n1)NS(=O)(=O)c1cccc(c1)C(=O)N(CC(=O)N(C)CC1CCCCC1)[C@H](CC(C)(C)C)CO2 [Compound 231]
pEC50 (Table 12): > 6.00
Emax (Table 12): > 60%

SMILES: Cc1cccc(C)c1-c1cc2nc(n1)NS(=O)(=O)c1cccc(c1)C(=O)N(Cc1ccc(C3CCCCC3)nn1)[C@H](CC(C)(C)C)CO2 [Compound 233]
activation at 10 µM (Table 12): > 600%

From patent publication US20240150377A1, “MODULATORS OF CYSTIC FIBROSIS TRANSMEMBRANE CONDUCTANCE REGULATOR” (VERTEX PHARMACEUTICALS INCORPORATED, priority 2020, published 2024)
